Test results reported in patent US20110281807A1, “PLANT DISEASE CONTROL AGENT COMPRISING D-TAGATOSE AS ACTIVE INGREDIENT, AND PLANT DISEASE CONTROL METHOD” (NATIONAL UNIVERSITY CORPORATION KAGAWA UNIVERSITY, priority 2008, published 2011).

Experiments:
Phytophthora infestans = assay: whole plant or invertebrate; format: in vivo; conditions: Phytophthora infestans, in Solanum lycopersicum, 168 h, read-out: Preventive value
Pyricularia oryze = assay: whole plant or invertebrate; format: in vivo; conditions: Pyricularia, in Oryza sativa, 168 h, read-out: Preventive value
Puccinia recondita = conditions: Puccinia recondita, in Triticum aestivum, 168 h, read-out: Preventive value
Protocol: Test plants (variety: Nourin 61 gou) were sowed and grown until two leaves stage.
D-Tagatose and fungicide were diluted to 10000 ppm and the concentration listed in table 19, respectively, with distilled water, and 10 ml of the dilution was sprayed thoroughly on the plants. Three days after the spraying of the dilution, the plants were inoculated with Puccinia recondita containing 1×10^3/ml and then put for 16 hours in an inoculation chamber (20° C. to 23° C.) to promote disease. Seven days after inoculation the disease severity of the test plants was observed and the effectiveness of test sample was judged.

Botrytis cinerea = conditions: Botrytis cinerea, in Solanum lycopersicum, 168 h, read-out: Preventive value
Protocol: Test plants (tomato, variety: Ogata-fukujyu) were seeded and grown until the three leaf stage. D-Tagatose and fungicide were diluted to 10000 ppm and the concentrations liste in table 23, respectively, with distilled water and 10 ml of the dilution was sprayed on the plants. Three days after spraying the solution, condia suspension of Botrytis cinerea were inoculated by spraying on test plants and then put for 16 hours in an inoculation chamber (20° C. to 23° C.) to promote disease. Seven days after inoculation, the disease severity of the test plants was observed and the effectiveness of test sample was judged.

Plasmopara viticola = conditions: Plasmopara viticola, 168 h, read-out: Preventive value
Protocol: Test plants (variety: Neo Muscat) were seeded and grown until three leaves. D-Tagatose was diluted to 5000 ppm and the fungicides were diluted to the concentrations listed in table 16, with distilled water, and 10 ml of the dilution was sprayed on the plants. Three days after the spraying of the dilution, the plants were infected by spraying a sporangium suspension of Plasmopara viticola containing 1×10^3/ml and then put for 16 hours in an inoculation chamber (20° C. to 23° C.) to promote disease. The disease severity of the test plants was observed 7 days after inoculation, and the effectiveness of test sample was judged.

Sphaerotheca fuliginea = conditions: Podosphaera fuliginea, in Cucumis sativus, 168 h, read-out: Preventive value
Protocol: Test plants (cucumber, variety: Sagami hanpaku) were seeded and grown until the one true leaf stage. D-Tagatose and fungicide were diluted to 5000 ppm and the concentrations listed in table 20, respectively, with distilled water and 10 ml of the dilution was sprayed thoroughly on the plants. Three days after spraying, a condia suspension containing of Sphaerotheca fuliginea were inoculated by spraying on test plants.
Seven days after inoculation the disease severity of the test plants was observed and the effectiveness of test sample was judged.

With `O=C(CO)[C@@H](O)[C@@H](O)[C@H](O)CO` [D-Tagatose, D-tagatose] the pest or weed control at 5000 ppm (Phytophthora infestans) was 0%, the pest or weed control at 10000 ppm (Phytophthora infestans) was 40% and the pest or weed control at 10000 ppm (Pyricularia oryze) was 0%. The pest or weed control at 50000 ppm (Pyricularia oryze) was 50%, the pest or weed control at 10000 ppm (Puccinia recondita) was 17% and the pest or weed control at 50000 ppm (Puccinia recondita) was 50%. The pest or weed control at 10000 ppm (Botrytis cinerea) was 0%, the pest or weed control at 50000 ppm (Botrytis cinerea) was 17% and the pest or weed control at 5000 ppm (Plasmopara viticola) was 17%. The pest or weed control at 10000 ppm (Plasmopara viticola) was 67%, the pest or weed control at 5000 ppm (Sphaerotheca fuliginea) was 40% and the pest or weed control at 10000 ppm (Sphaerotheca fuliginea) was 93%.
